Experiments:
[1] = test system: Human Microvascular Endothelial Cells; test: Endothelial cell migration, inverted modified Boyden chamber; assay type: cell-based; settings: 0.01-10 μg/ml
Experimental: In an alternative in vitro assay for angiogenic activity, an assay for endothelial cell migration was developed. […] Primary Human Microvascular Endothelial Cells (HMVEC PO51, Clonetics, San Diego, Calif.) were maintained in DME with 10% donor calf serum (Flow Laboratories, McLean, Va.) and 100 μg/ml endothelial celi mitogen (Biomedical Technologies Inc., Stoughton, Mass.). The cells were used between passages 10 and 15. To measure migration, cells were starved for 24 hours in DME containing 0.1% BSA, harvested, resuspended in DME with 0.1% BSA, and plated at 1.75×10^4 cells/well on the lower surface of a gelatinized 0.5 μm filter (Nucleopore Corporation, Pleasanton. Calif.) in an inverted modified Boyden chamber. After 1-2 hours at 37° C., during which time the cells were allowed to adhere to the filter, the chamber was reverted to its normal position. […] Chambers were disassembled, membranes fixed and stained, and the number of cells that had migrated to the top of the filter in 3 high-powered fields was determined. […]
To allow comparison of experiments performed on different days, migration data is reported as the percent of maximum migration towards the positive control, calculated after subtraction of background migration observed in the presence of DME plus BSA. […] Detachment was detected by counting cells on the lower face of the membrane. […]

cornea = test: Cornea assay for angiogenic factors; assay type: in vivo, rat; settings: FGF 0.15 μM (six animals); Cyr61 1 μg/ml (seven animals)
From the text: Another assay for modulators of angiogenesis is an in vivo assay for assessing the effect of a suspected modulator in the presence of an ECM signaling molecule-related biomaterial, such as Cyr61, on angiogenesis is the Cornea Assay. The Cornea Assay takes advantage of the absence of blood vessels in the cornea, which in the presence of an angiogenic factor, results in the detectable development of capillaries extending from the sclera into the cornea. Friedlander et al., Science 270:1500-1502 (1995). This ingrowth of new blood vessels from the sclera can be microscopically monitored. Further, the visually determined rate of migration can be used to assess changes in the rate of angiogenesis. […] Subsequently, eyes containing implants are visually observed for growth of the readily visible blood vessels within the eye. […]
Although rats of various sizes can be used in the cornea assay, a preferred size for the rats is 150-200 g/animal. […] Once the cornea pocket is made, the spatula is removed and the distance between the limbus and base of the pocket is measured to make sure the separation is at least about 1 mm. […]
Following surgery, animals are examined daily for seven days with the aid of a stereomicroscope to check for inflammation and responses. […] During this seven day period, animals are monitored for implant position and corneal exudate. […]

For “bFGF: Growth factor used as positive control [reference compound]”, the “migrated cells per three high-powered microscope fields” value [1] was 92 cells and the “eyes showing blood vessel growth after seven days” value (cornea) was “all six”.

— patent publication US7521540B2, “CYR61 compositions and methods” (Munin Corporation, priority 1996, dated 2009)
